Data on 79 compounds can be found in the METLIN SMRT retention time set (Domingo-Almenara et al. 2019).

A short description of the data set: gradient 5% acetonitrile 3 min, to 50% in 2 min, to 85% in 15 min, held 3 min, 100 µL/min. Conditions: column: Zorbax Extend-C18 2.1 x 50 mm; eluents: water / acetonitrile, 0.1% formic acid. The method, boiled down: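 Retention times of pure standards were taken from adduct peaks that were selected by computer and manually inspected. Over 3 months, mixtures of ~100 molecules were run by HPLC–quadrupole time-of-flight mass spectrometry in positive and negative ionization mode. The Zorbax Extend-C18 column (2.1 × 50 mm, 1.8 μm) ran at 100 μL/min in water and acetonitrile, each containing 0.1% formic acid, with 40 μL dead volume and 900 μL dwell volume.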
`O=C(CN1C(=O)CC(c2ccccc2)S(=O)(=O)c2ccccc21)NC1CCCC1` (centres undefined) displayed an RP-LC retention time of 831 s. The result for `O=C(c1ccc2c(c1)CCCN2S(=O)(=O)c1ccccc1)N1CCCCC1` reads 939 s. The result for `Cc1nnc(C2CC3(CCN(CCO)CC3)CN2Cc2ccccc2)o1` (centres undefined) reads 565 s; that for `Cc1cc(-c2nnc(-c3ccccc3)o2)c(C)n1CC(=O)NCC1CCCO1` (centres undefined), 770 s. `Cc1ccc(-c2noc(Cn3c(=O)n(CCc4ccccc4)c(=O)c4sccc43)n2)cc1` had an RP-LC retention time of 1170 s. The result for `O=C(c1cccnc1)N1CCN(C(=O)c2nnn3c2COC(c2ccc(Cl)cc2)C3)CC1` (centres undefined) reads 692 s; that for `COc1cc(NC(=O)N2CCN(C)c3ncccc32)cc(OC)c1OC`, 584 s.

Turning to `COc1ccc(CCNC(=O)c2nnc(-c3ccc(S(=O)(=O)N4CCCC4)cc3)o2)cc1OC`, the RP-LC retention time turned out to be 824 s. Regarding `COc1cc(OC)c(NC(=O)NCCCn2c(C(F)(F)F)nc3cccnc32)cc1Cl`, the RP-LC retention time was found to be 836 s. The result for `COc1ccc(NC(=O)CCc2nc(-c3ccc(N4CCCC4)cc3)no2)cc1OC` reads 936 s; that for `Cc1ccccc1-c1noc(C2CCCN2C(=O)Nc2cccc(F)c2)n1` (centres undefined), 1030 s; that for `O=C(Nc1c(Cl)cncc1Cl)c1ccc(OC(F)F)c(OCC2CC2)c1`, 1020 s.

`CCOc1ccc(-c2ccc(=O)n(CCc3nc(-c4ccccc4)no3)n2)cc1` displayed an RP-LC retention time of 1000 s. The result for `OCCNCCN1CCN(CCCN2c3ccccc3Sc3ccc(C(F)(F)F)cc32)CC1` reads 641 s; that for `CCN1C(=O)c2cccnc2Sc2cc(CNC(=O)c3ccncc3)ccc21`, 623 s; that for `c1cncc(-c2nc(-c3ccnc(N4CCCC4)c3)no2)c1`, 590 s. The result for `Cn1cnc(S(=O)(=O)N2CC(Oc3ccccc3-c3nc(-c4ccccc4)no3)C2)c1` reads 915 s; that for `O=C(NCCn1ncccc1=O)c1ccc(N2CCCC2)nn1`, 522 s; that for `O=C(Nc1ccc(-n2cnnn2)cc1)C1CC(=O)N(c2ccccc2)C1` (centres undefined), 662 s. As to `CCCC1(CO)CCCN1C(=O)c1nn(C)c2ccccc12` (centres undefined), the RP-LC retention time is 857 s. With `O=C(NCCC1=CCCCC1)C1CCCN(c2ccncc2)C1` (centres undefined), the RP-LC retention time stood at 645 s. The result for `CN1C(=O)[C@H]2CN(Cc3cccc(Cl)c3F)C[C@H]2C1=O` reads 649 s; that for `CCOc1ccc(CNC(=O)CN2CC=C(c3cnn(-c4ccccc4)c3)CC2)cc1OCC`, 746 s; that for `CCn1nccc1C(=O)N1CCC[C@H]1c1nc(-c2ccccc2)n[nH]1`, 627 s. The result for `CC(C)(C)c1csc(-c2csc(S(=O)(=O)NCc3ccc(F)cc3)c2)n1` reads 1220 s; that for `CCn1cc(CCNC(=O)Cc2ccccc2C)c2cccnc21`, 721 s. In turn, `Cc1nn(C(C)C(=O)NCCN2CCCCC2C)c(=O)c2c1sc1ccccc12` (centres undefined) yielded an RP-LC retention time of 680 s. The result for `CN(C)C(=O)Cc1ccc(NC(=O)Cc2ccc(-c3ccccc3)cc2)cc1` reads 795 s; that for `COc1cccc(N2CCN(C(=O)C3CC(=O)N(c4ccc5oc(C)nc5c4)C3)CC2)c1` (centres undefined), 752 s; that for `Cc1ccc(NC(=O)N2CCC(n3cnc4ccc(F)cc4c3=O)CC2)cc1F`, 842 s. The result for `COc1cccc(CNC(=O)CN2CCc3[nH]c4c(OC)ccc(Cl)c4c(=O)c3C2)c1` reads 618 s; that for `O=c1c(S(=O)(=O)N2CCCC2)cccn1Cc1ccc(Cl)cc1`, 876 s. The result for `COC(=O)c1c(C)[nH]c(C(=O)N2CCC(CC(=O)NCc3cccc(Cl)c3)CC2)c1C` reads 770 s; that for `COc1ccc(NC(=O)c2ccc(-c3cncnc3)nc2)cc1`, 687 s; that for `COCCN1C(=O)Cc2ccccc2C1C(=O)NCc1ccc(C)o1` (centres undefined), 637 s. Take `COc1ccc(-c2nc(-c3ccc4oc(C)nc4c3)no2)cc1OC`: the RP-LC retention time was found to be 978 s.

In turn, `O=C(c1ccco1)N1CCc2nc(OCC3CC3)ccc2C1` displayed an RP-LC retention time of 821 s.

Compound `Cc1cc(=O)n(CC(=O)Nc2ccc(N(C)C)cc2)c(N2CCOCC2)n1` displayed an RP-LC retention time of 555 s. The result for `CN1C(=O)c2cc(C(=O)NCc3ccc(Cl)cc3)nn2CC1(C)C(=O)NCc1ccccc1` (centres undefined) reads 832 s; that for `O=C(Nc1ccc2c(c1)OCO2)C1CCN(c2cc(N3CCCCC3)ncn2)CC1`, 677 s. The result for `CC(O)(CNC(=O)C(=O)Nc1cccc(N2CCCCC2=O)c1)c1ccccc1` (centres undefined) reads 668 s; that for `CCOc1ccccc1CNC(=O)Cc1nnc(-c2cccc(F)c2)o1`, 805 s; that for `Cc1ccc(NC(=O)C2CCN(S(=O)(=O)c3cc(C(=O)N4CCC(C)CC4)n(C)c3)CC2)nc1`, 705 s. The result for `CN(CC1CCOCC1)S(=O)(=O)Cc1ccccc1F` reads 786 s; that for `C=CCn1c(C)c(CC(=O)Nc2ccc(C)cc2)c(=O)n2nc(-c3ccc(C)cc3)nc12`, 991 s; that for `COc1ccc(Cl)cc1C(=O)NC1CCN(c2cc(-c3ccccc3)[nH]n2)C1` (centres undefined), 784 s. In turn, `Nc1ncnc2c1nc(Br)n2C1O[C@H]2COP(=O)(O)O[C@@H]2[C@@H]1O` (some centres undefined) returned an RP-LC retention time of 549 s.

For the compound `Cc1ccc(CN2C(=O)NC3(CCN(C(=O)c4ccc[nH]4)CC3)C2=O)cc1`, the RP-LC retention time was 767 s. `Cn1ncc2c3ccccc3n(CC(=O)NCCCN3CCCC3=O)c2c1=O` gave an RP-LC retention time of 615 s. The result for `O=C(NCCc1c[nH]c2ccccc12)c1nc[nH]c1C(=O)NCc1ccccn1` reads 641 s; that for `Cc1ccccc1CNC(=O)CN1CCN(Cc2ccc(F)cc2Cl)C1=O`, 629 s; that for `Cc1ccc(S(=O)(=O)N2CCCCCC2)cc1-c1nnc(-c2ccccc2)o1`, 1190 s. In turn, `Cc1cc(NC(=O)CN(C)CCC#N)nc2c1c(=O)oc1ccccc12` came in with an RP-LC retention time of 694 s. The result for `CCCNC(=O)C1CCCN(c2ccc(SCC(=O)NCc3ccc(C(F)(F)F)cc3)nn2)C1` (centres undefined) reads 700 s. The result for `CCOc1ccc(-c2cc3c(=O)n(Cc4nc(-c5ccc(CC)cc5)no4)ncn3n2)cc1` reads 1300 s; that for `O=C(O)CCC(=O)Nc1cccc(C(F)(F)F)c1`, 674 s. Compound `Cc1ccc(NC(=O)Cn2nc3n(c2=O)CCCCC3)cc1C` showed an RP-LC retention time of 717 s. The result for `COc1ccc(-c2nc3cnc(Br)cn3c2Nc2ccc3c(c2)OCO3)cc1` reads 926 s; that for `O=C(c1cc(O)c(O)c([N+](=O)[O-])c1)c1ccccc1F`, 716 s; that for `Cc1ccc(C)c(N2CCN(c3ccc4cc(S(=O)(=O)N5CCCCC5C)ccc4n3)CC2)c1` (centres undefined), 1340 s.

For the compound `CC1(C)C(=O)Nc2ccc(S(=O)(=O)N3CCC(c4noc(-c5ccccc5)n4)C3)cc21` (centres undefined), the RP-LC retention time turned out to be 883 s. The result for `COC(=O)C1=CN(c2ccc(F)c(F)c2)c2ccc(F)cc2S1(=O)=O` reads 854 s; that for `Cc1[nH]c(C(=O)Nc2ccccc2F)c(C)c1S(=O)(=O)N1CCCCC1`, 933 s. As for `CN(C)C(=O)c1ccc2c(c1)N(CC(=O)N1CCN(c3ccccc3)CC1)C(=O)CO2`, the RP-LC retention time worked out at 689 s. Compound `CCOc1ccc(-c2nc(CN3CCN(C(=O)NC(C)C)CC3)c(C)o2)cc1` displayed an RP-LC retention time of 656 s. The result for `Cc1cccn2cc(C(=O)N3CCN(c4ccc(Cl)cc4)CC3)nc12` reads 946 s; that for `COc1ccc2c(c1)-c1nc(NC(=O)c3cc(Cl)ccc3OC)sc1CC2`, 1300 s. The result for `CCNC(=O)N1CC(Oc2ccc(-c3nc(-c4ccccc4)no3)cc2)C1` reads 945 s.

With `COc1ccc(-c2nc3cnccn3c2Nc2cccc(Cl)c2)cc1`, the RP-LC retention time was 961 s.

Take `N#Cc1cnc(-c2ccc(F)cc2)n(CC(=O)Nc2ccc(C(F)(F)F)cc2)c1=O`: the RP-LC retention time was determined as 1040 s. The result for `CN(CC1CCOCC1)S(=O)(=O)c1cccc(F)c1` reads 811 s. The result for `Nc1cc(C2CCN(C(=O)Nc3ccc(F)cc3)CC2)no1` reads 668 s; that for `CCC(=O)N1CCN(Cc2nc3cc(NC(=O)c4cccs4)ccc3n2C)CC1`, 602 s. The result for `Cc1cc(S(=O)(=O)[C@H]2CS(=O)(=O)C[C@@H]2N2CCN(Cc3ccccc3)CC2)ccc1F` reads 678 s; that for `COc1ccc(CNC(=O)Cc2nnc(-c3ccccn3)o2)c(OC)c1`, 696 s. As for `CN(CC1(C)CCOCC1)C(=O)COc1ccc(F)cc1`, the RP-LC retention time worked out at 770 s. In turn, `O=C(Cn1ccc2ccccc21)Nc1nccs1` gave an RP-LC retention time of 748 s.

`CCOC(=O)c1noc2nc(C)nc(Nc3cc(C)cc(C)c3)c12` showed an RP-LC retention time of 1060 s. The result for `O=C(NCCc1ccccc1)C1=C2CCCN2c2ccc(F)cc2S1(=O)=O` reads 909 s.
